# Measured values from US5665745A, “Heterocyclic compounds and their preparation and use” (Eli Lilly and Company, priority 1995, dated 1997).
# Like-named read-outs stand apart in the source and are kept apart here.
# Tests used:
# [1] = biological target: muscarinic acetylcholine receptors; assay: inhibition of specific binding of ^3 H-Oxotremorine-M (^3 H-Oxo); parameters: species or system rat (male Wistar; conditions: ^3 H-Oxotremorine 1.0 nM, rat cortex, 30 min. at 25° C.
# From the text: The pharmacological properties of the compounds of the invention can be illustrated by determining their capability to inhibit the specific binding of ^3 H-Oxotremorine-M (^3 H-Oxo). Birdsdall N. J. M., Hulme E. C., and Burgen A. S. V. (1980). "The Character of Muscarinic Receptors in Different Regions of the Rat Brain" Proc. Roy. Soc. London (Series B) 207,1.
# ^3 H-Oxo labels muscarinic receptor in the CNS (with a preference for agonist domains of the receptors). Three different sites are labeled by ^3 H-Oxo. […] Using the present experimental conditions only the high and medium affinity sites are determined.
# The inhibitory effects of compounds on ^3 H-oxo binding reflects the affinity for muscarinic acetylcholine receptors.
# (§1) All preparations are performed at 0°-4° C. unless otherwise indicated. Fresh cortex (0.1-1 g) from male Wistar rats (150-250 g) is homogenized for 5-10 seconds in 10 mL 20 nM Hepes pH: 7.4, with an Ultra-Turrax homogenizer. The homogenizer is rinsed with 10 mL of buffer and the combined suspension centrifuged for 15 min. at 40,000×g. The pellet is washed three times with buffer. In each step the pellet is homogenized as before in 2×10 mL of buffer and centrifuged for 10 min. at 40,000×g.
# The final pellet is homogenized in 20 mM Hepes pH: 7.4 (100 mL per g of original tissue) and used for binding assay. Aliquots of 0.5 mL is added 25 μL of test solution and 25 μL of ^3 H-Oxotremorine (1.0 nM, final concentration) mixed and incubated for 30 min. at 25° C. Non-specific binding is determined in triplicate using arecoline ([…], final concentration) as the test substance. After incubation samples are added 5 mL of ice-cold buffer and poured directly onto Whatman GF/C glass fiber filters under suction and immediately washed 2 times with 5 mL of ice-cold buffer. The amount of radioactivity on the filters are determined by conventional liquid scintillation counting. Specific binding is total binding minus non specific binding.
# Test substances are dissolved in 10 mL water (if necessary heated on a steam-bath for less than 5 min.) at a concentration of 2.2 mg/mL. […] The test value will be given as IC50 (the concentration (nM) of the test substance which inhibits the specific binding of ^3 H-oxo by 50%). IC50 =(applied test substance concentration) x(Cx /Co -Cx)nM where Co is specific binding in control assays and Cx is the specific binding in the test assay. (The calculations assume normal mass-action kinetics).
# [2] = biological target: T1, muscarinic receptors (M1 -site, pirenzepine sensitive site) (Rattus norvegicus, UniProt P08482); assay: inhibition of ^3 HPRZ (pirenzepine, [N-methyl-^3 H]) binding to rat cerebral cortex membranes; parameters: species or system rat (male Wistar
# T1 construct: from tissue; host or cells: cerebral cortex membranes of male Wistar rats
# T1 sequence (P08482 1-460): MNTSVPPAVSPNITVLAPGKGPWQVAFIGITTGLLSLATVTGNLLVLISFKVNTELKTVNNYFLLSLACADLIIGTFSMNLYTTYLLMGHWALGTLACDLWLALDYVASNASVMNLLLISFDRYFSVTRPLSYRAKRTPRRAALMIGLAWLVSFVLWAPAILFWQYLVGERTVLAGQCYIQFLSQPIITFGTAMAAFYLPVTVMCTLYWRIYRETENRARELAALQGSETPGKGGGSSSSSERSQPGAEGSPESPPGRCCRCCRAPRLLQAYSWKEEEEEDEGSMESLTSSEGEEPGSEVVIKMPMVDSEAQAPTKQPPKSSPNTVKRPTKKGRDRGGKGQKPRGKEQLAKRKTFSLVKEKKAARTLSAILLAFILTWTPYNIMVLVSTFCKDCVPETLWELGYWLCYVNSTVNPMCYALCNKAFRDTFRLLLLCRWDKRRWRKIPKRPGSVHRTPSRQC
# Protocol: Furthermore the pharmacological properties of the compounds of the invention can also be illustrated by determining their capability to inhibit ^3 HPRZ (pirenzepine, [N-methyl-^3 H]) binding to rat cerebral cortex membranes.
# Pirenzepine binds selectively to subtype of muscarinic receptors. Historically the type is named the M1 -site, whereas pirenzepine sensitive site would be more appropriate.
# as §1, with “cortex ([…])” for “cortex (0.1-1 g)”, “rats (150-200” for “rats (150-250”, “5-10 s” for “5-10 seconds”, “20 mM” for “20 nM”, “with 2×10” for “with 10”, “in 3×10” for “in 2×10”
# The final pellet is homogenized in 20 mM Hepes pH: 7.4 (100 mL per g of original tissue) and used for binding assay. Aliquots of 0.5 mL is added 20 μl of test solution and 25 μL of ^3 HPRZ (1.0 nM, final conc.), mixed and incubated for 60 min. at 20° C. Non-specific binding is determined in triplicate using atropine (1 ,μg/mL, final conc.) as the test substance. After incubation samples are added 5 mL of ice-cold buffer and poured directly onto Whatman GF/C glass fiber filters under suction and immediately washed 2 times with 5 mL of ice-cold buffer. The amount of radioactivity on the filters are determined by conventional liquid scintillation counting. Specific binding is total binding minus non-specific binding.
# Test substances are dissolved in 10 mL water, at a concentration of 0.22 mg/mL.
# The test value will be given as IC50 (the concentration (nM) of the test substance which inhibits the specific binding of ^3 HPRZ by 50%). IC50 =(applied test substance concentration) x(Cx /Co -Cx)nM where Co is specific binding in control assays and Cx is the specific binding in the test assay. (The calculations assume normal mass-action kinetics).
# [3] = ^3 HPRZ 1.0 nM, rat cortex, 60 min. at 20° C., read-out: ^3 HPRZ IC50 (head from b208 on: Pir IC-50)
Compound,IC50 [1] [µM],IC50 [2] [µM],"IC50 [2, 3] [µM]"
"c1csc(SCCSc2nsnc2OC2CN3CCC2CC3)c1 (racemic) [Compound 19, (±)-3-(2-(2-Thienylthio)ethylthio)-4-(1-azabicyclo-[2.2.2]octyl-3-oxy)-1,2,5-thiadiazole]",0.00036,0.0075,–
"FC(F)(F)C(F)(F)CSc1nsnc1OC1CN2CCC1CC2 (racemic) [Compound 20, (±)-3-(2,2,3,3,3-Pentafluoropropylthio)-4-(1-azabicyclo-[2.2.2]octyl-3-oxy)-1,2,5-thiadiazole]",0.0026,0.004,–
"c1csc(CCCSc2nsnc2OC2CN3CCC2CC3)c1 (racemic) [Compound 21, (±)-3-(3-(2-Thienyl)propylthio)-4-(1-azabicyclo[2.2.2]-octyl-3-oxy-1,2,5-thiadiazole]",0.0044,0.004,–
"CCCCSc1nsnc1OCC1CN2CCC1CC2 (racemic) [Compound 22, (±)-3-Butylthio-4-((1-azabicyclo[2.2.2]octan-3-yl)-methoxy)-1,2,5-thiadiazole]",0.023,0.0074,–
"CCCCOc1nsnc1OC1CCNC1 (racemic) [Compound 27, (±)-3-Butyloxy-4-(3-pyrrolidinyloxy)-1,2,5-thiadiazole]",0.123,–,0.37
"CCCCOc1nsnc1OC1CCN(C)C1 (racemic) [Compound 28, (±)-3-Butyloxy-4-(1-methyl-3-pyrrolidinyloxy)-1,2,5-thiadiazole]",0.037,–,0.025
"CCCCSc1nsnc1OC1CCCN(C)C1 (racemic) [Compound 29, (±)-3-Butylthio-4-(1-methyl-3-piperidyloxy)-1,2,5-thiadiazole]",0.034,–,0.02
"CC(C)CCCSc1nsnc1OC1CN2CCC1CC2 (racemic) [Compound 39, (±)-3-(4-Methylpentylthio)-4-(1-azabicyclo[2.2.2]octyl-3-oxy)-1,2,5-thiadiazole]",0.013,0.015,–
"c1ccc(CCCSc2nsnc2OC2CN3CCC2CC3)cc1 (racemic) [Compound 40, (±)-3-(3-Phenylpropylthio)-4-(1-azabicyclo[2.2.2]octyl-3-oxy)-1,2,5-thiadiazole]",0.0018,0.0025,–
"N#Cc1ccc(CSc2nsnc2OC2CN3CCC2CC3)cc1 (racemic) [Compound 41, (±)-3-(4-Cyanobenzylthio)-4-(1-azabicyclo[2.2.2]octyl-3-oxy)-1,2,5-thiadiazole]",0.025,0.019,–
"Fc1ccc(CSc2nsnc2OC2CN3CCC2CC3)cc1 (racemic) [Compound 42, (±)-3-(4-Fluorobenzylthio)-4-(1-azabicyclo[2.2.2]octyl-3-oxy)-1,2,5-thiadiazole]",0.014,0.0093,–
"c1ccc(CCSc2nsnc2OC2CN3CCC2CC3)cc1 (racemic) [Compound 43, (±)-3-(2-Phenylethylthio)-4-(1-azabicyclo[2.2.2]octyl-3-oxy)-1,2,5-thiadiazole]",0.029,0.033,–
"c1ccc(OCCSc2nsnc2OC2CN3CCC2CC3)cc1 (racemic) [Compound 44, (±)-3-(2-Phenyloxyethylthio)-4-(1-azabicyclo[2.2.2]octyl-3-oxy)-1,2,5-thiadiazole]",0.0071,0.015,–
"CCCCOc1nsnc1O[C@@H]1CCC[C@H]1N(C)C (racemic) [Compound 52, (±)-trans-3-Butyloxy-4-(2-dimethylaminocyclopentyloxy)-1,2,5-thiadiazole]",> 1,–,0.475
"CCCCSc1nsnc1OC1CCNC1 (racemic) [Compound 53, (±)-3-Butylthio-4-(3-pyrrolidnyloxy)-1,2,5-thiadiazole]",0.024,–,0.035
"FC(F)(F)c1ccc(SCCSc2nsnc2OC2CN3CCC2CC3)s1 (racemic) [Compound 55, (±)-3-(2-(2-Thio-5-trifluoromethylthienyl)ethylthio)-4-(1-azabicyclo[2.2.2]octyl-3-oxy)-1,2,5-thiadiazole]",0.011,0.023,–
"c1csc(-c2ccc(Sc3nsnc3OC3CN4CCC3CC4)s2)c1 (racemic) [Compound 57, (±)-3-(2-(5-(2-Thienyl)thienyl)thio)-4-(1-azabicyclo [2.2.2]octyl-3-oxy)-1,2,5-thiadiazole]",0.088,0.037,–
"c1csc(-c2ccc(SCCSc3nsnc3OC3CN4CCC3CC4)s2)c1 (racemic) [Compound 59, (±)-3-(2-(2-(5-(2-Thienyl)thienyl)thio)ethylthio)-4-(1-azabicyclo[2.2.2]octyl-3-oxy)-1,2,5-thiadiazole]",0.104,–,0.102
"c1csc(Sc2nsnc2OC2CN3CCC2CC3)c1 (racemic) [Compound 60, (±)-3-(2-Thienyl)thio)-4-(1-azabicyclo[2.2.2]octyl-3-oxy)-1,2,5-thiadiazole]",0.019,0.014,–
"O=C1SCCN1CCCSc1nsnc1OC1CN2CCC1CC2 (racemic) [Compound 61, (±)-3-(3-N-(2-Thiazolidonyl)propylthio)-4-(1-azabicyclo[2.2.2]octyl-3-oxy)1,2,5-thiadiazole]",0.0011,0.0058,–
"CCCCSc1nsnc1OC1CC2CCC1NC2 (racemic) [Compound 65, (±)3-Butylthio-4-(exo-2-azabicyclo[2.2.2]oct-6-yloxy)-1,2,5-thiadiazole]",0.0023,–,0.00072
"FC(F)(F)C(F)(F)C(F)(F)COc1nsnc1OC1CN2CCC1CC2 (racemic) [Compound 69, (±)3-(2,2,3,3,4,4,4-heptafluorobutyloxy)-4-[-3-(1-azabicyclo[2.2.2]octyloxy)]-1,2,5-thiadiazole]",0.029,0.02,–
"Fc1ccc(CCCSc2nsnc2OC2CN3CCC2CC3)cc1 (racemic) [Compound 73, (±)3-[3-(4-Fluorophenyl)propylthio]-4-[-3-(1-azabicyclo[2.2.2]octyloxy)]-1,2,5-thiadiazole]",0.0041,0.0065,–
"FC(F)(F)c1ccc(CCCSc2nsnc2OC2CN3CCC2CC3)cc1 (racemic) [Compound 74, (±)3-{3-[4-(Trifluoromethyl)phenyl]propylthio}-4-[-3-(1-azabicyclo[2.2.2]octyloxy)]-1,2,5-thiadiazole]",0.024,0.04,–
